From patent US9085576B2 (AMGEN INC., priority 2013, dated 2015) come the findings set out here.

In one assay the target is BACE (Homo sapiens (Human), UniProt P56817). The assay is described as follows: In vitro BACE cell-based assay (Aβ40 in conditioned medium, sandwich ELISA). On the technique in general: ELISA stands for enzyme-linked immunosorbent assay.
Assay [1] addresses Beta Secretase enzyme (BACE) (Homo sapiens (Human), UniProt P56817). The assay is described as follows: In vitro enzymatic BACE FRET assay. In kind it is biochemical. The conditions noted are these: read-out: BACE1 Enzyme assay IC50.
A further assay concerns the target Cathepsin D (Cat D) (Homo sapiens (Human), UniProt P07339). The assay is described as follows: In vitro enzymatic Cathepsin D (Cat D) FRET assay. The class given is biochemical. Particulars: read-out: CatD IC50.

Chain of Beta Secretase enzyme (BACE) (P56817 46-501): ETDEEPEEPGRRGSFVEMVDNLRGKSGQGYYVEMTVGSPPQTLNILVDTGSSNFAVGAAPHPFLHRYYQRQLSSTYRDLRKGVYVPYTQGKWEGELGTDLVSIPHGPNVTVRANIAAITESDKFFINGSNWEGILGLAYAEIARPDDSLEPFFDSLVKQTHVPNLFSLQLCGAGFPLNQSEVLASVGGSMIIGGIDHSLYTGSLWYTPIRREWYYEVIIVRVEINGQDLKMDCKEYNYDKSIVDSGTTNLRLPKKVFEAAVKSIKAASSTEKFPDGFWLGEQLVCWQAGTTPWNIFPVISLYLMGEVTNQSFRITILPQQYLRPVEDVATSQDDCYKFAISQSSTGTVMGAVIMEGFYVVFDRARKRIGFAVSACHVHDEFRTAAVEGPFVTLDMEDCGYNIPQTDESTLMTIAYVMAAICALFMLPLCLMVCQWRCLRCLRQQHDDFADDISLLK
Chain of BACE (P56817 46-501, species assumed): as the sequence (P56817 46-501) above
Chain of Cathepsin D (Cat D) (P07339 65-412, species assumed): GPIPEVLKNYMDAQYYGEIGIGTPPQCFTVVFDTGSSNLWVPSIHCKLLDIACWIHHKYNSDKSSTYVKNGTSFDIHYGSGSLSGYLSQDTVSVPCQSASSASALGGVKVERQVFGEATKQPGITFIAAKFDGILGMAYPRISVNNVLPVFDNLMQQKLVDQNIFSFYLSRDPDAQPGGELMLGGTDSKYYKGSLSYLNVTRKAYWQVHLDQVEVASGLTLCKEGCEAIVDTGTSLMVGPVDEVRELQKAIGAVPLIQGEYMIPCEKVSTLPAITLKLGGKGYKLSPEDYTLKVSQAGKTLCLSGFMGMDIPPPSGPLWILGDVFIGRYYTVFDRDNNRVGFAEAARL

For orientation: IC50 means the concentration that inhibits the measured activity by half. As to `NC1=N[C@@](c2cc(NC(=O)CC(F)(F)F)ccc2F)(C(F)F)[C@H]2C[C@H]2O1` [Example 251, N-(3-((1R,5S,6R)-3-amino-5-(difluoromethyl)-2-oxa-4-azabicyclo[4.1.0]hept-3-en-5-yl)-4-fluorophenyl)-3,3,3-trifluoropropanamide], the values for the half-maximal inhibitory concentration (IC50) (on BACE; in assay [1]; on Cathepsin D (Cat D)) were 2 µM, 4.7 µM and 190 µM, respectively.

For `CC(C)(C)OCC(=O)Nc1ccc(F)c([C@@]2(C(F)F)N=C(N)O[C@@H]3C[C@@H]32)c1` [Example 254, N-(3-((1R,5S,6R)-3-amino-5-(difluoromethyl)-2-oxa-4-azabicyclo[4.1.0]hept-3-en-5-yl)-4-fluorophenyl)-2-(tert-butoxy)acetamide], the IC50 was above 15.6 µM at BACE, above 40 µM in assay [1] and 2560 µM at Cathepsin D (Cat D).

Turning to `COCCOCC(=O)Nc1ccc(F)c([C@@]2(C(F)F)N=C(N)O[C@@H]3C[C@@H]32)c1` [Example 255, N-(3-((1R,5S,6R)-3-amino-5-(difluoromethyl)-2-oxa-4-azabicyclo[4.1.0]hept-3-en-5-yl)-4-fluorophenyl)-2-(2-methoxyethoxy) acetamide], the figures for the IC50 (at BACE; in assay [1]; at Cathepsin D (Cat D)) were above 15.6 µM, above 40 µM and 666 µM, respectively.

As for `NC1=N[C@@](c2cc(NC(=O)COc3ccccc3)ccc2F)(C(F)F)[C@H]2C[C@H]2O1` [Example 256, N-(3-((1R,5S,6R)-3-amino-5-(difluoromethyl)-2-oxa-4-azabicyclo[4.1.0]hept-3-en-5-yl)-4-fluorophenyl)-2-phenoxyacetamide], the IC50 on BACE was 2.18 µM; in assay [1], 6.66 µM; on Cathepsin D (Cat D) it was 331 µM.

On to `NC1=N[C@@](c2cc(NC(=O)C3CC(=O)C3)ccc2F)(C(F)F)[C@H]2C[C@H]2O1` [Example 258, N-(3-((1R,5S,6R)-3-amino-5-(difluoromethyl)-2-oxa-4-azabicyclo[4.1.0]hept-3-en-5-yl)-4-fluorophenyl)-3-oxocyclobutane-carboxamide], for which the concentration for half-maximal inhibition (IC50) was determined as 2.6 µM on BACE, 20.1 µM in assay [1] and 117 µM at Cathepsin D (Cat D).

With `NC1=N[C@@](c2cc(NC(=O)C3CC3)ccc2F)(C(F)F)[C@H]2C[C@H]2O1` [Example 260, N-(3-((1R,5S,6R)-3-amino-5-(difluoromethyl)-2-oxa-4-azabicyclo[4.1.0]hept-3-en-5-yl)-4-fluorophenyl) cyclopropanecarboxamide], the IC50 amounted to 3.19 µM on BACE, 5.17 µM in assay [1] and 104 µM at Cathepsin D (Cat D).

In the case of `NC1=N[C@@](c2cc(NC(=O)c3cnc(Cl)cn3)ccc2F)(C(F)F)[C@H]2C[C@H]2O1` [Example 261, N-(3-((1R,5S,6R)-3-amino-5-(difluoromethyl)-2-oxa-4-azabicyclo[4.1.0]hept-3-en-5-yl)-4-fluorophenyl)-5-chloropyrazine-2-carboxamide], the IC50 on BACE was found to be 1.59 µM; in assay [1] it was 0.037 µM; at Cathepsin D (Cat D), 444 µM.

Consider `NC1=N[C@@](c2cc(NC(=O)C#Cc3ccccc3)ccc2F)(C(F)F)[C@H]2C[C@H]2O1` [Example 262, N-(3-((1R,5S,6R)-3-amino-5-(difluoromethyl)-2-oxa-4-azabicyclo[4.1.0]hept-3-en-5-yl)-4-fluorophenyl)-3-phenylpropiolamide], for which the IC50 against BACE was 0.144 µM; in assay [1], 0.245 µM; on Cathepsin D (Cat D), 204 µM.

With `NC1=N[C@](c2cccc(NC(=O)c3ccc(Cl)cn3)c2)(C(F)F)[C@@H]2C[C@@H]2O1` [Example 264, N-(3-((1 S,5R,6S)-3-amino-5-(difluoromethyl)-2-oxa-4-azabicyclo[4.1.0]hept-3-en-5-yl)phenyl)-5-chloropicolinamide], the values for the IC50 (at BACE; in assay [1]; on Cathepsin D (Cat D)) were above 15.6 µM, 35.9 µM and above 400 µM, respectively.

Consider `Cc1cnc(C(=O)Nc2ccc(F)c([C@@]3(C(F)F)N=C(N)O[C@@H]4C[C@@H]43)c2)cn1` [Example 266, N-(3-((1R,5S,6R)-3-amino-5-(difluoromethyl)-2-oxa-4-azabicyclo[4.1.0]hept-3-en-5-yl)-4-fluorophenyl)-5-methylpyrazine-2-carboxamide], for which the values for the IC50 (on BACE; in assay [1]; at Cathepsin D (Cat D)) were 0.776 µM, 0.817 µM and 1160 µM, respectively.

Turning to `NC1=N[C@](CF)(c2cc(NC(=O)c3ccc(Cl)cn3)ccc2Cl)[C@H]2C[C@H]2O1` [Example 270, N-(3-((1R,5S,6R)-3-amino-5-(fluoromethyl)-2-oxa-4-azabicyclo[4.1.0]hept-3-en-5-yl)-4-chlorophenyl)-5-chloropicolinamide], the IC50 was found to be 0.0122 µM against BACE, 0.0669 µM in assay [1] and 646 µM at Cathepsin D (Cat D).

For `COc1cnc(C(=O)Nc2ccc(Cl)c([C@@]3(CF)N=C(N)O[C@@H]4C[C@@H]43)c2)cn1` [Example 272], the values for the IC50 (against BACE; in assay [1]; at Cathepsin D (Cat D)) were 0.0274 µM, 0.143 µM and 1730 µM, respectively.

`COc1cnc(C(=O)Nc2ccc(Cl)c([C@]3(CF)N=C(N)O[C@H]4C[C@H]43)c2)cn1` [Example 273]: the half-maximal inhibitory concentration (IC50) on BACE is 2.66 µM; in assay [1] it was 36.3 µM; at Cathepsin D (Cat D) it was 1970 µM.

For the compound `NC1=N[C@](CF)(c2cc(NC(=O)c3ccc(Br)cn3)ccc2Cl)[C@H]2C[C@H]2O1` [Example 274, N-(3-((1R,5S,6R)-3-amino-5-(fluoromethyl)-2-oxa-4-azabicyclo[4.1.0]hept-3-en-5-yl)-4-chlorophenyl)-5-bromopicolinamide], the IC50 on BACE was 0.012 µM; in assay [1], 0.0322 µM; at Cathepsin D (Cat D), 538 µM.

Turning to `NC1=N[C@@](CF)(c2cc(NC(=O)c3ccc(Br)cn3)ccc2Cl)[C@@H]2C[C@@H]2O1` [Example 275, N-(3-((1S,5R,6S)-3-amino-5-(fluoromethyl)-2-oxa-4-azabicyclo[4.1.0]hept-3-en-5-yl)-4-chlorophenyl)-5-bromopicolinamide], the results for the IC50 (at BACE; in assay [1]; on Cathepsin D (Cat D)) were 0.906 µM, 3.6 µM and 1130 µM, respectively.

As to `N#Cc1ccc(C(=O)Nc2ccc(Cl)c([C@@]3(CF)N=C(N)O[C@@H]4C[C@@H]43)c2)nc1` [Example 277, N-(3-((1R,5S,6R)-3-amino-5-(fluoromethyl)-2-oxa-4-azabicyclo[4.1.0]hept-3-en-5-yl)-4-chlorophenyl)-5-cyanopicolinamide], the IC50 turned out to be 0.0192 µM at BACE, 0.0568 µM in assay [1] and 1560 µM at Cathepsin D (Cat D).

For `N#Cc1ccc(C(=O)Nc2ccc(Cl)c([C@]3(CF)N=C(N)O[C@H]4C[C@H]43)c2)nc1` [Example 278, N-(3-((1 S,5R,6S)-3-amino-5-(fluoromethyl)-2-oxa-4-azabicyclo[4.1.0]hept-3-en-5-yl)-4-chlorophenyl)-5-cyanopicolinamide], the figures for the half-inhibitory concentration (IC50) (on BACE; in assay [1]; on Cathepsin D (Cat D)) were 2.64 µM, 9.51 µM and 904 µM, respectively.

As to `C#CCOc1cnc(C(=O)Nc2ccc(Cl)c([C@@]3(CF)N=C(N)O[C@@H]4C[C@@H]43)c2)cn1` [Example 279, N-(3-((1R,5S,6R)-3-amino-5-(fluoromethyl)-2-oxa-4-azabicyclo[4.1.0]hept-3-en-5-yl)-4-chlorophenyl)-5-(prop-2-yn-1-yloxy)pyrazine-2-carboxamide], the values for the IC50 (at BACE; in assay [1]; on Cathepsin D (Cat D)) were 0.0086 µM, 0.0056 µM and 124 µM, respectively.
